Measured values reported in PubChem BioAssay (NCI).
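Five compound concentrations were applied to cells in 96-well plates for 48 hours; endpoints were derived by simple linear interpolation of the resulting dose-response curve. The concentration for 50% growth inhibition is given as GI50. TGI marks complete inhibition of growth.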

Legend:
Assay in all cases: DTP human tumour cell line panel, 48 h
UACC-62 melanoma = tested on: UACC-62 melanoma
MDA-MB-468 breast = tested on: MDA-MB-468 breast
HCT-116 colon = tested on: HCT-116 colon
K-562 leukemia = tested on: K-562 leukemia
A498 renal = tested on: A498 renal
A549 NSCLC = tested on: A549 NSCLC
COLO 205 colon = tested on: COLO 205 colon
UACC-257 melanoma = tested on: UACC-257 melanoma
MALME-3M melanoma = tested on: MALME-3M melanoma
HS 578T breast = tested on: HS 578T breast
NCI-H522 lung = tested on: NCI-H522 lung
NCI-H460 lung = tested on: NCI-H460 lung
SF-295 CNS = tested on: SF-295 CNS
EKVX NSCLC = tested on: EKVX NSCLC
OVCAR-5 ovarian = tested on: OVCAR-5 ovarian
KM12 colon = tested on: KM12 colon
SK-OV-3 ovarian = tested on: SK-OV-3 ovarian
HCT-15 colon = tested on: HCT-15 colon
PC-3 prostate = tested on: PC-3 prostate
NCI/ADR-RES ovarian = tested on: NCI/ADR-RES ovarian
HL-60(TB) leukemia = tested on: HL-60(TB) leukemia
TK-10 renal = tested on: TK-10 renal
CAKI-1 renal = tested on: CAKI-1 renal
RPMI-8226 leukemia = tested on: RPMI-8226 leukemia
LOX IMVI melanoma = tested on: LOX IMVI melanoma
ACHN renal = tested on: ACHN renal
HCC-2998 colon = tested on: HCC-2998 colon
NCI-H226 lung = tested on: NCI-H226 lung
BT-549 breast = tested on: BT-549 breast
MCF7 breast = tested on: MCF7 breast
HOP-92 NSCLC = tested on: HOP-92 NSCLC
SK-MEL-5 melanoma = tested on: SK-MEL-5 melanoma
U251 CNS = tested on: U251 CNS
IGROV1 ovarian = tested on: IGROV1 ovarian
NCI-H23 lung = tested on: NCI-H23 lung
SK-MEL-28 melanoma = tested on: SK-MEL-28 melanoma
786-0 renal = tested on: 786-0 renal
HOP-62 NSCLC = tested on: HOP-62 NSCLC
OVCAR-4 ovarian = tested on: OVCAR-4 ovarian
MDA-MB-435 = tested on: MDA-MB-435
SR leukemia = tested on: SR leukemia
SW-620 colon = tested on: SW-620 colon
OVCAR-3 ovarian = tested on: OVCAR-3 ovarian
OVCAR-8 ovarian = tested on: OVCAR-8 ovarian
CCRF-CEM leukemia = tested on: CCRF-CEM leukemia
DU-145 prostate = tested on: DU-145 prostate
SN12C renal = tested on: SN12C renal
T-47D breast = tested on: T-47D breast
SF-268 CNS = tested on: SF-268 CNS
SF-539 CNS = tested on: SF-539 CNS
M14 melanoma = tested on: M14 melanoma
SNB-19 CNS = tested on: SNB-19 CNS
MOLT-4 leukemia = tested on: MOLT-4 leukemia
RXF 393 renal = tested on: RXF 393 renal
HT29 colon = tested on: HT29 colon

With `O=C(CSc1nc2sc3c(c2c(=O)n1-c1ccc(Cl)cc1)CCCC3)N/N=C/C=C/c1ccccc1` as the compound, how does the GI50 (UACC-62 melanoma) read?
Its GI50 is 2.84 µM.

What about the TGI (UACC-62 melanoma) of the same compound?
The TGI was 10.9 µM.

And the GI50 (MDA-MB-468 breast)?
Its GI50 is 1.85 µM.

What about the TGI (MDA-MB-468 breast) of the same compound?
Its TGI is 4.11 µM.

And the GI50 (HCT-116 colon)?
The GI50 was 3.03 µM.

What about the TGI (HCT-116 colon) of the same compound?
The TGI was 13 µM.

What about the GI50 (K-562 leukemia) of the same compound?
Its GI50 is 4.68 µM.

What about the TGI (K-562 leukemia) of the same compound?
The TGI was > 100 µM.

And the GI50 (A498 renal)?
The GI50 was 7.71 µM.

And the TGI (A498 renal)?
The TGI was 25.4 µM.

And the GI50 (A549 NSCLC)?
The GI50 was 3.58 µM.

What about the TGI (A549 NSCLC) of the same compound?
The TGI was 15.5 µM.

What about the GI50 (COLO 205 colon) of the same compound?
Its GI50 is 1.71 µM.

What about the TGI (COLO 205 colon) of the same compound?
Its TGI is 3.4 µM.

What about the GI50 (UACC-257 melanoma) of the same compound?
Its GI50 is 11.8 µM.

And the TGI (UACC-257 melanoma)?
The TGI was 87.8 µM.

And the GI50 (MALME-3M melanoma)?
Its GI50 is 1.99 µM.

What about the TGI (MALME-3M melanoma) of the same compound?
The TGI was 4.85 µM.

What about the GI50 (HS 578T breast) of the same compound?
The GI50 was 4.64 µM.

And the TGI (HS 578T breast)?
Its TGI is 56.5 µM.

What about the GI50 (NCI-H522 lung) of the same compound?
The GI50 was 3.17 µM.

And the TGI (NCI-H522 lung)?
Its TGI is 12.6 µM.

What about the GI50 (NCI-H460 lung) of the same compound?
Its GI50 is 3.14 µM.

What about the TGI (NCI-H460 lung) of the same compound?
The TGI was 10.6 µM.

What about the GI50 (SF-295 CNS) of the same compound?
Its GI50 is 4.92 µM.

And the TGI (SF-295 CNS)?
Its TGI is 22.4 µM.

What about the GI50 (EKVX NSCLC) of the same compound?
Its GI50 is 8.81 µM.

What about the TGI (EKVX NSCLC) of the same compound?
Its TGI is > 100 µM.

And the GI50 (OVCAR-5 ovarian)?
The GI50 was 4.87 µM.

And the TGI (OVCAR-5 ovarian)?
Its TGI is 27.7 µM.

And the GI50 (KM12 colon)?
The GI50 was 16.7 µM.

What about the TGI (KM12 colon) of the same compound?
Its TGI is 63.6 µM.

What about the GI50 (SK-OV-3 ovarian) of the same compound?
Its GI50 is 14.2 µM.

What about the TGI (SK-OV-3 ovarian) of the same compound?
The TGI was 38.4 µM.

And the GI50 (HCT-15 colon)?
Its GI50 is 2.96 µM.

What about the TGI (HCT-15 colon) of the same compound?
The TGI was 10.4 µM.

And the GI50 (PC-3 prostate)?
Its GI50 is 3.04 µM.

What about the TGI (PC-3 prostate) of the same compound?
The TGI was 17.9 µM.

What about the GI50 (NCI/ADR-RES ovarian) of the same compound?
The GI50 was 3.58 µM.

And the TGI (NCI/ADR-RES ovarian)?
Its TGI is 16 µM.

And the GI50 (HL-60(TB) leukemia)?
The GI50 was > 100 µM.

And the TGI (HL-60(TB) leukemia)?
The TGI was > 100 µM.

What about the GI50 (TK-10 renal) of the same compound?
Its GI50 is 2.8 µM.

What about the TGI (TK-10 renal) of the same compound?
Its TGI is 9.84 µM.

What about the GI50 (CAKI-1 renal) of the same compound?
The GI50 was 43.1 µM.

What about the TGI (CAKI-1 renal) of the same compound?
The TGI was > 100 µM.

What about the GI50 (RPMI-8226 leukemia) of the same compound?
Its GI50 is 4.51 µM.

And the TGI (RPMI-8226 leukemia)?
The TGI was 34 µM.

What about the GI50 (LOX IMVI melanoma) of the same compound?
The GI50 was 9.02 µM.

And the TGI (LOX IMVI melanoma)?
Its TGI is 22.2 µM.

And the GI50 (ACHN renal)?
Its GI50 is 4.22 µM.

What about the TGI (ACHN renal) of the same compound?
The TGI was 29.2 µM.

And the GI50 (HCC-2998 colon)?
Its GI50 is 2.75 µM.

And the TGI (HCC-2998 colon)?
The TGI was 7.05 µM.

What about the GI50 (NCI-H226 lung) of the same compound?
The GI50 was 5.19 µM.

And the TGI (NCI-H226 lung)?
The TGI was 23 µM.

And the GI50 (BT-549 breast)?
Its GI50 is 3.15 µM.

What about the TGI (BT-549 breast) of the same compound?
Its TGI is 7.65 µM.

What about the GI50 (MCF7 breast) of the same compound?
Its GI50 is 3.35 µM.

What about the TGI (MCF7 breast) of the same compound?
The TGI was 18.4 µM.

What about the GI50 (HOP-92 NSCLC) of the same compound?
The GI50 was 3.91 µM.

And the TGI (HOP-92 NSCLC)?
The TGI was 25.9 µM.

And the GI50 (SK-MEL-5 melanoma)?
Its GI50 is 3.12 µM.

And the TGI (SK-MEL-5 melanoma)?
Its TGI is 10.8 µM.

What about the GI50 (U251 CNS) of the same compound?
Its GI50 is 3.3 µM.

And the TGI (U251 CNS)?
The TGI was 11.7 µM.

And the GI50 (IGROV1 ovarian)?
The GI50 was 14.1 µM.

What about the TGI (IGROV1 ovarian) of the same compound?
Its TGI is 35.7 µM.

What about the GI50 (NCI-H23 lung) of the same compound?
The GI50 was 2.12 µM.

What about the TGI (NCI-H23 lung) of the same compound?
Its TGI is 5.78 µM.

And the GI50 (SK-MEL-28 melanoma)?
Its GI50 is 4.23 µM.

What about the TGI (SK-MEL-28 melanoma) of the same compound?
The TGI was 16.5 µM.

What about the GI50 (786-0 renal) of the same compound?
Its GI50 is 5.51 µM.

And the TGI (786-0 renal)?
Its TGI is 20.7 µM.

What about the GI50 (HOP-62 NSCLC) of the same compound?
Its GI50 is 3.31 µM.

What about the TGI (HOP-62 NSCLC) of the same compound?
The TGI was 13 µM.

And the GI50 (OVCAR-4 ovarian)?
The GI50 was 3.42 µM.

And the TGI (OVCAR-4 ovarian)?
Its TGI is 15.9 µM.

And the GI50 (MDA-MB-435)?
Its GI50 is 5.28 µM.

What about the TGI (MDA-MB-435) of the same compound?
The TGI was 22.5 µM.

And the GI50 (SR leukemia)?
Its GI50 is 26.5 µM.

And the TGI (SR leukemia)?
Its TGI is > 100 µM.

And the GI50 (SW-620 colon)?
The GI50 was 2.7 µM.

And the TGI (SW-620 colon)?
The TGI was 8.75 µM.

And the GI50 (OVCAR-3 ovarian)?
Its GI50 is 100 µM.

What about the TGI (OVCAR-3 ovarian) of the same compound?
Its TGI is > 100 µM.

What about the GI50 (OVCAR-8 ovarian) of the same compound?
The GI50 was 3.17 µM.

And the TGI (OVCAR-8 ovarian)?
The TGI was 11.7 µM.

What about the GI50 (CCRF-CEM leukemia) of the same compound?
The GI50 was 11.5 µM.

What about the TGI (CCRF-CEM leukemia) of the same compound?
The TGI was 69.9 µM.

What about the GI50 (DU-145 prostate) of the same compound?
Its GI50 is 5.3 µM.

What about the TGI (DU-145 prostate) of the same compound?
The TGI was > 100 µM.

And the GI50 (SN12C renal)?
The GI50 was 18 µM.

What about the TGI (SN12C renal) of the same compound?
The TGI was > 100 µM.

And the GI50 (T-47D breast)?
Its GI50 is 2.39 µM.

What about the TGI (T-47D breast) of the same compound?
Its TGI is 6.92 µM.

What about the GI50 (SF-268 CNS) of the same compound?
Its GI50 is 24.9 µM.

And the TGI (SF-268 CNS)?
Its TGI is > 100 µM.

What about the GI50 (SF-539 CNS) of the same compound?
The GI50 was 24.6 µM.

What about the TGI (SF-539 CNS) of the same compound?
Its TGI is > 100 µM.

And the GI50 (M14 melanoma)?
Its GI50 is 3.44 µM.

What about the TGI (M14 melanoma) of the same compound?
Its TGI is 15 µM.

And the GI50 (SNB-19 CNS)?
The GI50 was 18.2 µM.

What about the TGI (SNB-19 CNS) of the same compound?
Its TGI is > 100 µM.

And the GI50 (MOLT-4 leukemia)?
The GI50 was 3.57 µM.

What about the TGI (MOLT-4 leukemia) of the same compound?
The TGI was 12.9 µM.

What about the GI50 (RXF 393 renal) of the same compound?
Its GI50 is 1.93 µM.

And the TGI (RXF 393 renal)?
The TGI was 4.75 µM.

What about the GI50 (HT29 colon) of the same compound?
The GI50 was 2.61 µM.

What about the TGI (HT29 colon) of the same compound?
Its TGI is 6.48 µM.
